Laboratory results as given in US20220202841A1, “DERMATOLOGICAL FORMULATIONS FOR TREATMENT OF DERMATITIS” (priority 2020, published 2022).

Tested on: moderate to severe papular pustular rosacea with perioral dermatitis
Test: Treatment of a subject with the formulation, clinical examination after 1 month
Format: in vivo, human
Conditions: same subject, treatment history before the formulation, as reported at first visit
From the text: The lesions consisted of papules and pimples, was severe in severity, and had been present for months. […] The subject was having a bad “acne” flare up, and stated that their face was itchy and red. The subject had been treated for “acne” for a long time.
The subject was diagnosed with moderate to severe papular pustular rosacea with perioral dermatitis.
The subject was given the formulation of Example 1, and the subject administered it twice daily (AM and PM) and was seen again 1 month later, at which time their condition had improved. The subject's condition at this later examination was recorded in the images in FIGS. 2A to 2C.

`CC1=C(/C=C/C(C)=C/C=C/C(C)=C/C(=O)O)C(C)(C)CCC1` [tretinoin] was tested, and the “improvement of "acne" lesions with previously tried treatment” value was “no improvement”.
